“Also recorded” adds a separate entry of the source.
What was measured:
[1] = tested on: healthy, drug-free male volunteers; test: Pupillometry (pupillary miosis) in healthy volunteers; assay type: in vivo, human
Protocol: (§1) Pulse oximetry and capnography data were collected continuously using a GE Carescape B650 monitoring system from 2 hours prior to dosing and until six hours after dosing, and thereafter at 12, 24, 48 and 72 hours post-dosing. […] Pupillary miosis was assessed by pupillometry.
Summary statistics (means, standard deviations, and coefficients of variation) were determined for each dose group for safety laboratory test data, ECG and pharmacokinetic parameters, and pharmacodynamic variables. Categorical variables were analysed using counts and percentages. Dose-proportionality of AUC and Cmax was assessed using linear regression. The effect of dose on pharmacodynamic parameter values over time was assessed using two-factor analysis of variance (ANOVA). Pairwise comparisons (with Tukey-Kramer adjustment) between each dose group to the placebo were conducted at each time point using the least squares estimates obtained from the ANOVA, using SAS Proc Mixed (SAS ver 6.0).

[2] = tested on: opioid-dependent participants; test: Treatment emergent adverse events in opioid-dependent participants
[3] = tested on: healthy, drug-free male volunteers; test: Safety and tolerability of noribogaine in healthy humans; assay type: in vivo, human
Protocol: as §1
(§2) Safety and tolerability of noribogaine were tested in the group of volunteers from Example 1. […] Safety evaluations included clinical monitoring, recording of adverse events (AEs), safety laboratory tests, vital signs, ECG telemetry from −2 h to 6 h after dosing, and 12-lead electrocardiograms (ECGs) up to 216 hours post-dosing.

[4] = tested on: opioid-dependent participants; test: Opiate withdrawal scales (COWS, SOWS, OOWS); assay type: in vivo, human; details: first six hours following dosing
Protocol: Patients were evaluated based on the Clinical Opiate Withdrawal Scale (COWS), Subjective Opiate Withdrawal Scale (SOWS), and Objective Opiate Withdrawal Scale (OOWS) scoring systems over the period of time between administration of noribogaine (or placebo) until resumption of OST. These scales are outlined in Guidelines for the Psychosocially Assisted Pharmacological Treatment of Opioid Dependence, World Health Organization, Geneva (2009), Annex 10, which is incorporated herein by reference in its entirety. The scales measure the intensity of withdrawal symptoms, based on clinical, subjective, and objective indicia.

[5] = Pharmacokinetics of noribogaine in healthy volunteers (plasma, LCMSMS); details: for CL/F: healthy male volunteers, fasted, n = 6, mean (SD); for mean AUC/24 hr / mean AUC/24: fasting conditions
[6] = tested on: opioid-dependent participants; test: Time to resumption of opioid substitution treatment (OST); assay type: in vivo, human; details: for therapeutic response: methadone addicted patients
[7] = Pharmacokinetics in opioid-dependent patients (Phase IB study); details: 60-180 mg
[8] = tested on: opioid-dependent participants; test: QT interval prolongation in opioid-dependent patients; assay type: in vivo, human
Protocol: Patients' QT intervals were evaluated at regular time points throughout the study.

[9] = tested on: healthy, drug-free male volunteers; test: Cold pressor test (analgesic effect) in healthy volunteers; assay type: in vivo, human
Protocol: Analgesic effect was assessed based on duration of hand immersion in ice water and on visual analog scale (VAS) pain scores upon hand removal from the water bath.
as §2

[10] = after adjusting for baseline, p>0.9
[11] = opioid-dependent participants, 60, 120, 180 mg
[12] = opioid-dependent patients, single 60 mg noribogaine dose, N = 6
[13] = opioid-dependent patients, single 120 mg noribogaine dose, N = 6
[14] = opioid-dependent patients, single 180 mg noribogaine dose, N = 6

CC[C@H]1CC2C[C@H]3c4[nH]c5ccc(O)cc5c4CCN(C2)C13 [noribogaine]
pupil diameter, each dose group vs placebo by ANOVA [1, 10]: no statistically significant differences
pupillary constriction ([1]; healthy volunteers, 3-60 mg single oral dose): no evidence of pupillary constriction
headaches ([2]; 60 mg noribogaine treatment group): frequent
headaches ([2]; 120 mg dose group): attenuated
headaches ([2]; 180 mg dose group): attenuated
adverse effects observed [2, 11]: Few adverse effects
hallucinatory effects [2, 11]: no hallucinatory effects
Treatment emergent adverse events: Catheter Site Infection [2, 12]: 0
Treatment emergent adverse events: Catheter Site Pain [2, 12]: 0
Treatment emergent adverse events: Catheter Site Related Reaction [2, 12]: 0
Treatment emergent adverse events: Cellulitis [2, 12]: 0
Treatment emergent adverse events: Diarrhoea [2, 12]: 0
Treatment emergent adverse events: Dry Mouth [2, 12]: 0
Treatment emergent adverse events: Ear and Labyrinth Disorders [2, 12]: 0
Treatment emergent adverse events: Epistaxis [2, 12]: 0
Treatment emergent adverse events: Euphoric Mood [2, 12]: 0
Treatment emergent adverse events: General Disorders and Administration Site Conditions [2, 12]: 0
Treatment emergent adverse events: Hyperaesthesia [2, 12]: 0
Treatment emergent adverse events: Infections and Infestations [2, 12]: 0
Treatment emergent adverse events: Limb Discomfort [2, 12]: 0
Treatment emergent adverse events: Malaise [2, 12]: 0
Treatment emergent adverse events: Nausea [2, 12]: 0
Treatment emergent adverse events: Oropharyngeal Pain [2, 12]: 0
Treatment emergent adverse events: Pseudoparalysis [2, 12]: 0
Treatment emergent adverse events: Respiratory, Thoracic and Mediastinal Disorders [2, 12]: 0
Treatment emergent adverse events: Rhinorrhoea [2, 12]: 0
Treatment emergent adverse events: Skin Discomfort [2, 12]: 0
Treatment emergent adverse events: Skin Irritation [2, 12]: 0
Treatment emergent adverse events: Skin and Subcutaneous Tissue Disorders [2, 12]: 0
Treatment emergent adverse events: Somnoience [2, 12]: 0
Treatment emergent adverse events: Tinnitus [2, 12]: 0
Treatment emergent adverse events: Tremor [2, 12]: 0
Treatment emergent adverse events: Urinary Tract Infection [2, 12]: 0
Treatment emergent adverse events: Vomiting [2, 12]: 0
Treatment emergent adverse events: Back Pain [2, 13]: 0
Treatment emergent adverse events: Catheter Site Infection [2, 13]: 0
Treatment emergent adverse events: Catheter Site Related Reaction [2, 13]: 0
Treatment emergent adverse events: Depressed Mood [2, 13]: 0
Treatment emergent adverse events: Dry Eye [2, 13]: 0
Treatment emergent adverse events: Dyspepsia [2, 13]: 0
Treatment emergent adverse events: Euphoric Mood [2, 13]: 0
Treatment emergent adverse events: Limb Discomfort [2, 13]: 0
Treatment emergent adverse events: Malaise [2, 13]: 0
Treatment emergent adverse events: Musculoskeletal and Connective Tissue Disorders [2, 13]: 0
Treatment emergent adverse events: Psychiatric Disorders [2, 13]: 0
Treatment emergent adverse events: Somnoience [2, 13]: 0
Treatment emergent adverse events: Urinary Tract Infection [2, 13]: 0
Treatment emergent adverse events: Catheter Site Infection [2, 14]: 0
Treatment emergent adverse events: Catheter Site Pain [2, 14]: 0
Treatment emergent adverse events: Depressed Mood [2, 14]: 0
Treatment emergent adverse events: Diarrhoea [2, 14]: 0
Treatment emergent adverse events: Dry Eye [2, 14]: 0
Treatment emergent adverse events: Dyspepsia [2, 14]: 0
Treatment emergent adverse events: Ear and Labyrinth Disorders [2, 14]: 0
Treatment emergent adverse events: Epistaxis [2, 14]: 0
Treatment emergent adverse events: Euphoric Mood [2, 14]: 0
Treatment emergent adverse events: Hyperaesthesia [2, 14]: 0
Treatment emergent adverse events: Malaise [2, 14]: 0
Treatment emergent adverse events: Oropharyngeal Pain [2, 14]: 0
Treatment emergent adverse events: Pseudoparalysis [2, 14]: 0
Treatment emergent adverse events: Psychiatric Disorders [2, 14]: 0
Treatment emergent adverse events: Respiratory, Thoracic and Mediastinal Disorders [2, 14]: 0
Treatment emergent adverse events: Rhinorrhoea [2, 14]: 0
Treatment emergent adverse events: Skin Discomfort [2, 14]: 0
Treatment emergent adverse events: Skin Irritation [2, 14]: 0
Treatment emergent adverse events: Skin and Subcutaneous Tissue Disorders [2, 14]: 0
Treatment emergent adverse events: Somnoience [2, 14]: 0
Treatment emergent adverse events: Tinnitus [2, 14]: 0
Treatment emergent adverse events: Tremor [2, 14]: 0
adverse events reported ([3]; 3 mg dose group, by two subjects): five
adverse events reported ([3]; 10 mg dose group, single subject): one
adverse events reported ([3]; 30 mg dose group, single subject): one
intensity of adverse events ([3]; all adverse events of the study, all resolved prior to study completion): mild-moderate
Adverse events: Mild ([3]; healthy volunteers, 3 mg): Dizziness; also recorded: Epistaxis; also recorded: Headache; also recorded: Back pain
Adverse events: Moderate ([3]; healthy volunteers, 3 mg): Headache
Adverse events: Mild ([3]; healthy volunteers, 10 mg): Headache
Adverse events: Mild ([3]; healthy volunteers, 30 mg): Headache
oximetry, capnography, respiratory rate ([3]; healthy volunteers, 3-60 mg): no changes in oximetry or capnography, or changes in respiratory rate
vital signs and safety laboratory tests ([3]; healthy volunteers, 3-60 mg): no changes in vital signs or safety laboratory tests of note
QTcF values ([3]; healthy volunteers, at any time): ≤ 500 ms
increase in QTcF ([3]; one subject dosed with 10 mg, single increase at 24 hours post-dosing): > 60 ms
withdrawal symptoms (COWS, OOWS, SOWS) ([4]; 120 mg): generally experienced fewer withdrawal symptoms than the other patients
withdrawal symptoms compared with placebo (COWS, OOWS, SOWS) ([4]; 60, 120, 180 mg): Patients administered placebo generally experienced more withdrawal symptoms than patients who were administered noribogaine
CL/F ([5]; single oral 3 mg noribogaine): 41.4 (7.0) L/h
CL/F ([5]; single oral 10 mg noribogaine): 42.3 (12.0) L/h
CL/F ([5]; single oral 30 mg noribogaine): 46.9 (16.4) L/h
CL/F ([5]; single oral 60 mg noribogaine): 34.0 (11.4) L/h
dose-proportionality of Cmax and AUC ([5]; healthy volunteers, 3-60 mg): increased linearly with dose
time of peak concentrations after oral dosing ([5]; healthy volunteers, across 3-60 mg dose groups): 2 to 3 h
mean half-life estimates ([5]; healthy volunteers, across dose groups): 28 to 50 h
mean AUC/24 hr ([5]; single dose of 3 mg noribogaine free base): 3.1 ng/mL
mean AUC/24 hr ([5]; single dose of 10 mg noribogaine free base): 10.6 ng/mL
mean AUC/24 ([5]; single dose of 30 mg noribogaine free base): 29.2 ng/mL
mean AUC/24 ([5]; single dose of 60 mg noribogaine free base): 61 ng/mL
time to resumption of opioid substitution therapy compared with 60 mg ([6]; 120 mg): significantly longer
time to resumption of OST compared with untreated patients or 60 mg noribogaine ([6]; 180 mg): still longer
therapeutic response ([6]; single 60 mg dosing): generally does not provide a meaningful therapeutic response
therapeutic response ([6]; single 120 mg dosing): generally provides a meaningful therapeutic response
average time to resumption of opioids ([6]; single 120 mg dose): greater than 20 hours
maximum serum concentration (Cmax) versus dose [7]: increased in a dose-dependent manner
QT interval prolongation (ΔQTcl) versus dose and serum concentration ([8]; 60, 120, 180 mg, first 24 hours post administration): dose-dependent increase in QT interval prolongation
relation of QT interval prolongation to dose ([8]; doubling the dose gives about a doubling of the prolongation): linear pattern
QT interval in some patients ([8]; patients receiving 120 mg): greater than 500 ms
QT interval prolongation in some patients ([8]; patients receiving 120 mg): greater than 50 ms
average QT interval prolongation ([8]; patients receiving 120 mg): approximately 38 ms
VAS pain scores, each dose group vs placebo by ANOVA ([9]; after adjusting for baseline, p=0.17): no statistically significant differences
duration of hand immersion, each dose group vs placebo by ANOVA [9, 10]: no statistically significant differences
analgesic effect in the cold pressor test ([9]; healthy volunteers, 3-60 mg single oral dose, 1° C. water): no analgesic effect
